Marks after values point to notes of the source that are not given here.
Experiments:
Assay type in all cases: in vivo
[1] = test system: Phytophthora infestans; details: 40 ppm test suspension (asterisk); tomato seedlings sprayed 17 h after inoculation with Phytophthora infestans; rating 100 = 100% disease control, 0 = no control relative to the controls
[2] = test system: Phytophthora infestans; details: 40 ppm test suspension (asterisk); tomato seedlings sprayed the day before inoculation with Phytophthora infestans; rating 100 = 100% disease control, 0 = no control relative to the controls
[3] = test system: Plasmopara viticola; test: Test A: grape downy mildew, grape seedlings sprayed after inoculation, visual disease rating; details: 40 ppm test suspension (asterisk); grape seedlings sprayed 24 h after inoculation with Plasmopara viticola; rating 100 = 100% disease control, 0 = no control relative to the controls

Structure (SMILES)	Test C rating (disease control, tomato late blight) [1]	Test B rating (disease control, tomato late blight) [2]	Test A rating (disease control, grape downy mildew) [3]
Cc1cc(C(F)(F)F)nn1CC(=O)N1CCC(c2nc(C3=NOC(c4c(F)cccc4F)C3)cs2)CN1 (stereo not drawn) [Compound 1, 1-[4-[4-[5-(2,6-difluorophenyl)-4,5-dihydro-3-isoxazolyl]-2-thiazolyl]tetrahydro-1(2H)-pyridazinyl]-2-[5-methyl-3-(trifluoromethyl)-1H-pyrazol-1-yl]ethanone]	99* %	100* %	99* %
CC(=O)N1CC(c2nc(C3=NOC(c4c(F)cccc4F)C3)cs2)CCN1C(=O)Cn1nc(C(F)(F)F)cc1C (stereo not drawn) [Compound 2, 1-[2-Acetyl-4-[4-[5-(2,6-difluorophenyl)-4,5-dihydro-3-isoxazolyl]-2-thiazolyl]tetrahydro-1(2H)-pyridazinyl]-2-[5-methyl-3-(trifluoromethyl)-1H-pyrazol-1-yl]ethanone]	98* %	100* %	89* %
Cc1cc(C(F)(F)F)nn1CC(=O)N1CCC(c2nc(C3=NOC(c4c(F)cccc4F)C3)cs2)CO1 (stereo not drawn) [Compound 3]	99* %	100* %	100* %
Cc1cc(C(F)(F)F)nn1CC(=O)N1CC2CN(c3nc(C4=NOC(c5c(F)cccc5F)C4)cs3)CC2C1 (stereo not drawn) [Compound 4, 1-[5-[4-[5-(2,6-difluorophenyl)-4,5-dihydro-3-isoxazolyl]-2-thiazolyl]hexahydropyrrolol[3,4-c]pyrrol-2(1H)-yl]-2-[5-methyl-3-(trifluoromethyl)-1H-pyrazol-1-yl]ethanone]	99* %	100* %	99* %

From patent US8835427B2, “Fungicidal heterocyclic compounds” (priority 2010, dated 2014)
